Laboratory results as given in patent US20240246941A1, “SUBSTITUTED 4-(3-AMINOPROP-1-YL)AMINOQUINOLINE ANALOGS AS MODULATORS OF MELANOMA-ASSOCIATED ANTIGEN 11 UBIQUITIN LIGASE” (ST. JUDE CHILDREN'S RESEARCH HOSPITAL, INC., priority 2020, published 2024).
Read-outs that look alike come from different tables or passages of the source.

Target: interaction between GST-MAGEA11 MHD and FAM-PCF11_4 peptide (MAGE-A11:PCF11) (Homo sapiens (Human), UniProt P43364)
Assay: TR-FRET dose response competition assay for disruption of MAGE-A11:PCF11 binding
How it was run: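 Competition TR-FRET at room temperature in 50 mM Tris pH 7.5, 20 mM MgCl2, 0.1 mg/ml BSA, 1 mM DTT: final 5 nM GST-MAGEA11 MHD, 5 nM Tb-anti-GST, 200 nM FAM-PCF11_4, 90 min. Ratio 520/490 nm converted to % inhibition; IC50 from sigmoidal fit.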

[1] = Dose response TR-FRET screening of nine scaffold groups against MAGE-A11:PCF11, read-out: consensus IC50
[2] = Table 8, representative compounds, read-out: TR-FRET IC50
[3] = Table 5, dose response TR-FRET screening of 59 quinoline compounds against MAGE-A11:PCF11, read-out: TR-FRET IC50

Chain of interaction between GST-MAGEA11 MHD and FAM-PCF11_4 peptide (MAGE-A11:PCF11) (P43364 218-429): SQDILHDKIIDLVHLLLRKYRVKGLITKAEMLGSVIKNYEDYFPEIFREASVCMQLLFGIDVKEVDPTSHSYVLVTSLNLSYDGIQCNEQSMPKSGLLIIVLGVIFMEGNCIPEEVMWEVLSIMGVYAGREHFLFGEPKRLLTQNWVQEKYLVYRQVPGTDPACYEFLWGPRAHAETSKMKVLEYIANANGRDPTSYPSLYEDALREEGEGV

| SMILES | IC50 [1] | also measured |
| --- | --- | --- |
| COc1ccc(CNC(=O)Cn2cnc3cc(-c4ccc(OC)cc4)sc3c2=O)cc1 [SJ000441316-1] | 69.9 µM |  |
| COc1ccc(-c2cc3ncn(CC(=O)NCc4ccc(F)cc4)c(=O)c3s2)cc1 [SJ000443969-1] | 69.9 µM |  |
| O=C(Cn1cnc2cc(-c3ccc(Cl)cc3)sc2c1=O)NCc1ccc(F)cc1 [SJ000444020-1] | 69.9 µM |  |
| COc1ccccc1CNC(=O)Cn1cnc2cc(-c3ccc(Cl)cc3)sc2c1=O [SJ000444040-1] | 69.9 µM |  |
| Cc1ccc(CNC(=O)Cn2cnc3cc(-c4ccc(Cl)cc4)sc3c2=O)cc1 [SJ000445272-1] | 69.9 µM |  |
| COc1ccc(-c2cc3ncn(CC(=O)NCc4ccc(C)cc4)c(=O)c3s2)cc1 [SJ000445282-1] | 69.9 µM |  |
| CC(=O)Cn1cnc2cc(-c3ccccc3)sc2c1=O [SJ000448314-1] | 69.9 µM |  |
| COc1ccc(-c2cc3ncn(CC(=O)NCc4ccccc4F)c(=O)c3s2)cc1 [SJ000449696-1] | 69.9 µM |  |
| COc1ccc(-c2cc3ncn(CC(=O)NCc4ccccc4Cl)c(=O)c3s2)cc1 [SJ000449845-1] | 69.9 µM |  |
| COC(=O)CSc1nc2cc(-c3ccccc3)sc2c(=O)n1CCN1CCOCC1 [SJ000451551-1] | 69.9 µM |  |
| CC(C)(C)C(=O)CSc1nc2cc(-c3ccccc3)sc2c(=O)n1CCN1CCOCC1 [SJ000451590-1] | 69.9 µM |  |
| CCCCCn1c(-c2cccc(OC)c2)nc2c1c(=O)[nH]c(=O)n2CCCC [SJ000451928-1] | 69.9 µM |  |
| COc1ccccc1CNC(=O)Cn1cnc2cc(-c3ccccc3)sc2c1=O [SJ000452125-1] | 69.9 µM |  |
| CCCn1cnc2cc(-c3ccc(Cl)cc3)sc2c1=O [SJ000452142-1] | 69.9 µM |  |
| CCCn1c(-c2ccc(OC)cc2)nc2c1c(=O)[nH]c(=O)n2Cc1ccccc1 [SJ000452204-1] | 69.9 µM |  |
| O=c1c2sc(-c3ccccc3)cc2nc(SCCO)n1CCN1CCOCC1 [SJ000452798-1] | 69.9 µM |  |
| Cc1ccccc1CNC(=O)Cn1cnc2cc(-c3ccccc3)sc2c1=O [SJ000453315-1] | 69.9 µM |  |
| CCCSc1nc2cc(-c3ccccc3)sc2c(=O)n1CCN1CCOCC1 [SJ000453419-1] | 69.9 µM |  |
| C=CCSc1nc2cc(-c3ccccc3)sc2c(=O)n1CCN1CCOCC1 [SJ000453564-1] | 69.9 µM |  |
| COc1ccc(-c2cc3ncn(CC(=O)NCc4ccccc4C)c(=O)c3s2)cc1 [SJ000455215-1] | 69.9 µM |  |
| O=C(Cn1cnc2cc(-c3ccc(Cl)cc3)sc2c1=O)NCc1ccccc1F [SJ000455225-1] | 69.9 µM |  |

| SMILES | IC50 [1] | also measured |
| --- | --- | --- |
| O=C(Cn1cnc2cc(-c3ccccc3)sc2c1=O)NCc1ccccc1Cl [SJ000455850-1] | 69.9 µM |  |
| C=C(C)CSc1nc2cc(-c3ccccc3)sc2c(=O)n1CCN1CCOCC1 [SJ000456069-1] | 0.861 µM |  |
| O=C(Cn1cnc2cc(-c3ccccc3)sc2c1=O)NCc1ccccc1OC(F)(F)F [SJ000456118-1] | 69.9 µM |  |
| C=C(C)Cn1cnc2cc(-c3ccc(Cl)cc3)sc2c1=O [SJ000456507-1] | 69.9 µM |  |
| CCCn1c(-c2ccc(F)cc2)nc2c1c(=O)[nH]c(=O)n2Cc1ccccc1 [SJ000456724-1] | 69.9 µM |  |
| COc1ccc(CNC(=O)Cn2cnc3cc(-c4ccc(Cl)cc4)sc3c2=O)cc1 [SJ000457620-1] | 69.9 µM |  |
| COc1ccc(-c2cc3ncn(CC(=O)NCc4ccc(Cl)cc4)c(=O)c3s2)cc1 [SJ000457991-1] | 69.9 µM |  |
| N#CCCn1cnc2cc(-c3ccc(F)cc3)sc2c1=O [SJ000458551-1] | 69.9 µM |  |
| CCCn1c(=O)[nH]c(=O)c2c1nc(-c1ccc(OC(F)F)c(OC)c1)n2CCOC [SJ000459257-1] | 69.9 µM |  |
| CCCCCn1c(-c2cccc(F)c2)nc2c1c(=O)[nH]c(=O)n2CCCC [SJ000460165-1] | 69.9 µM |  |
| CCCn1c(=O)[nH]c(=O)c2c1nc(-c1ccc(F)c(F)c1)n2CCOC [SJ000460758-1] | 69.9 µM |  |
| CC(NC=O)c1ccc2c(c1)c1ccccc1n2C (stereo not drawn) [SJ000461804-1] | 69.9 µM |  |
| CCn1c2ccccc2c2cc(C(C)NC=O)ccc21 (stereo not drawn) [SJ000461805-1] | 69.9 µM |  |
| CC1CN(c2oc(-c3ccc([N+](=O)[O-])cc3)nc2C#N)CC(C)O1 (stereo not drawn) [SJ000478204-1] | 69.9 µM |  |
| CC1CN(c2oc(-c3ccc(Cl)cc3)nc2C#N)CC(C)O1 (stereo not drawn) [SJ000478208-1] | 69.9 µM |  |
| COc1ccc(-c2nc(C#N)c(N3CC(C)OC(C)C3)o2)cc1 (stereo not drawn) [SJ000478212-1] | 69.9 µM |  |
| CCOc1ccc(-c2nc(C#N)c(N3CC(C)OC(C)C3)o2)cc1 (stereo not drawn) [SJ000478356-1] | 69.9 µM |  |
| Cc1ccc(-c2nc(C#N)c(N3CC(C)OC(C)C3)o2)cc1 (stereo not drawn) [SJ000478358-1] | 69.9 µM |  |
| CC1CN(c2oc(-c3ccc(F)cc3)nc2C#N)CC(C)O1 (stereo not drawn) [SJ000478453-1] | 69.9 µM |  |
| CCn1c2ccccc2c2cc(CNCC(C)O)ccc21 (stereo not drawn) [SJ000505727-1] | 69.9 µM |  |
| O=C1c2ccccc2NC(c2ccc(Br)cc2)N1Cc1ccc(Cl)cc1 (stereo not drawn) [SJ000508213-1] | 69.9 µM |  |

| SMILES | IC50 [1] | also measured |
| --- | --- | --- |
| COc1ccc(CN2C(=O)c3ccccc3NC2c2ccc(F)cc2)cc1 (stereo not drawn) [SJ000510740-1] | 69.9 µM |  |
| COc1ccc(CN2C(=O)c3ccccc3NC2c2ccc(C)cc2)cc1 (stereo not drawn) [SJ000510741-1] | 69.9 µM |  |
| COc1ccc(C2Nc3ccccc3C(=O)N2Cc2ccc(F)cc2)cc1 (stereo not drawn) [SJ000510742-1] | 69.9 µM |  |
| COc1ccc(C2Nc3ccccc3C(=O)N2Cc2ccc(C)cc2)cc1 (stereo not drawn) [SJ000510743-1] | 69.9 µM |  |
| COc1ccc(CN2C(=O)c3ccccc3NC2c2ccc(OC)cc2)cc1 (stereo not drawn) [SJ000510744-1] | 69.9 µM |  |
| COc1ccc(CN2C(=O)c3ccccc3NC2c2ccc([N+](=O)[O-])cc2)cc1 (stereo not drawn) [SJ000510745-1] | 69.9 µM |  |
| CN(Cc1ccno1)C(=O)c1ccc2c(c1)c1ccccc1n2C [SJ000516830-1] | 69.9 µM |  |
| Cc1cc(-c2nc3c(c(=O)[nH]c(=O)n3C)n2C)ccc1Cl [SJ000517919-1] | 69.9 µM |  |
| Cn1c(-c2ccc3c(c2)OCO3)nc2c1c(=O)[nH]c(=O)n2C [SJ000518479-1] | 69.9 µM |  |
| COc1cc(C)c2c(Oc3cccc(C(F)(F)F)c3)c(OC)cc(NC(C)CCCN)c2n1 (stereo not drawn) [SJ000518991] |  | IC50 [2]: > 65.7 µM |
| CN(C)C1=C2C=CC=CC2C(CNCCCNc2ccnc3cc(Cl)ccc23)C=C1 (stereo not drawn) [SJ000520354] |  | IC50 [2]: 69.9 µM |
| Clc1ccc2c(NCCCN(Cc3ccccc3)Cc3ccc4[nH]ccc4c3)ccnc2c1 [SJ000520430-1] |  | IC50 [3]: 41.7 µM |
| Clc1ccc2c(NCCCN(Cc3ccccc3)Cc3c[nH]c4ccccc34)ccnc2c1 [SJ000520433-1] |  | IC50 [3]: > 70 µM |
| Clc1ccc2c(NCCCCN(Cc3ccccc3)Cc3ccc4[nH]ccc4c3)ccnc2c1 [SJ000520434-1] |  | IC50 [3]: 23.4 µM |
| COC1CCC(C(F)(F)F)C1CN(CCCCNc1ccnc2cc(Cl)ccc12)Cc1ccccc1 (stereo not drawn) [SJ000520444-1] |  | IC50 [3]: > 70 µM |
| Clc1ccc2c(NCCCCN(Cc3ccccc3)Cc3csc4ccccc34)ccnc2c1 [SJ000520446-1] |  | IC50 [3]: > 70 µM |
| Cc1ccc(F)cc1CN(CCCCNc1ccnc2cc(Cl)ccc12)Cc1ccccc1 [SJ000520449-1] |  | IC50 [3]: > 70 µM |
| FC(F)(F)Oc1ccc(CN(CCCCNc2ccnc3cc(Cl)ccc23)Cc2ccccc2)cc1 [SJ000520451-1] |  | IC50 [3]: > 70 µM |
| FC(F)(F)Oc1cccc(CN(CCCCNc2ccnc3cc(Cl)ccc23)Cc2ccccc2)c1 [SJ000520457-1] |  | IC50 [3]: > 70 µM |
| CCCN(CCCNc1ccnc2cc(C(F)(F)F)ccc12)CCC(C)(C)C [SJ000520476-1] |  | IC50 [3]: > 70 µM |
| FC(F)(F)c1ccccc1CNCCCNc1ccnc2cc(Cl)ccc12 [SJ000520908-2] | 69.9 µM |  |
